“And” between values parts separate entries of the source, which are not always exact repeats. Equal entries are not always repeated.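 Protocol summary: plate cells (96-well), add compound at 5 concentrations, incubate 48 h, interpolate endpoints linearly. GI50: concentration for 50% inhibition of growth. TGI: total growth inhibition.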
Assays:
Experiment in all cases: growth of human tumour cells (NCI), 48 h
MDA-MB-468 breast = system: MDA-MB-468 breast
HS 578T breast = system: HS 578T breast
RXF 393 renal = system: RXF 393 renal
SN12C renal = system: SN12C renal
SF-539 CNS = system: SF-539 CNS
CCRF-CEM leukemia = system: CCRF-CEM leukemia
NCI-H23 lung = system: NCI-H23 lung
UACC-62 melanoma = system: UACC-62 melanoma
HCC-2998 colon = system: HCC-2998 colon
SF-295 CNS = system: SF-295 CNS
OVCAR-5 ovarian = system: OVCAR-5 ovarian

| Structure (SMILES) | GI50 (MDA-MB-468 breast) | TGI (MDA-MB-468 breast) | further results |
| --- | --- | --- | --- |
| O=c1[nH]c(-c2cccc(F)c2)cc2cc(F)ccc12 | 1890 nM | > 100 µM |  |
| Brc1ccc(/C=C/c2n(Cc3ccc4ccccc4c3)c3ccccc3[n+]2Cc2ccc3ccccc3c2)cc1 | 1340 nM | 2.73 µM | GI50 (HS 578T breast): 1480 nM; TGI (HS 578T breast): 3.87 µM; GI50 (RXF 393 renal): 1350 nM; TGI (RXF 393 renal): 2640 nM; GI50 (SN12C renal): 1640 nM; TGI (SN12C renal): 3.03 µM; GI50 (SF-539 CNS): 1670 nM; TGI (SF-539 CNS): 3.04 µM; GI50 (CCRF-CEM leukemia): 519 nM; TGI (CCRF-CEM leukemia): > 100 µM; GI50 (NCI-H23 lung): 1330 nM; TGI (NCI-H23 lung): 2680 nM; GI50 (UACC-62 melanoma): 1530 nM; TGI (UACC-62 melanoma): 2900 nM; GI50 (HCC-2998 colon): 1490 nM; TGI (HCC-2998 colon): 2830 nM; GI50 (SF-295 CNS): 1400 nM; TGI (SF-295 CNS): 2730 nM; GI50 (OVCAR-5 ovarian): 1350 nM; TGI (OVCAR-5 ovarian): 2660 nM |
| NNc1ncnc2nc[nH]c12 | 5790 nM | > 100 µM |  |
| COc1nc(=O)n(C2C=CC(=O)O2)cc1F (stereo not drawn) | 1930 nM | 9.1 µM |  |
| CN(C)CCN1CCC(Cc2ccccc2)CC1 | > 80000 nM | > 80 µM |  |
| CCn1cc(-c2ccnc3[nH]c(-c4cccc(CN(C)C)c4)cc23)c(-c2ccc(NC(=O)N(C)C)cc2)n1 | 50.4 nM and 282 nM | 16.7 µM and > 10 µM |  |
| CNCCCNc1ccnc2cc(Cl)ccc12 | 12700 nM | 33.5 µM |  |
| O=C(Nc1ncc(Cc2cccc(C(F)(F)F)c2)s1)c1ccc2c(c1)OCCO2 | 251 nM |  |  |
| N#CC(I)CS(=O)(=O)c1ccccc1 (stereo not drawn) | 3550 nM | 14.1 µM |  |
| C=CC12CCN(CC1)C(C(O)c1ccnc3ccc(OC)cc13)C2 (stereo not drawn) | 57400 nM | > 100 µM |  |
| C[C@H](CCOc1cccc(CC(=O)O)c1)N(Cc1cccc(C(F)(F)F)c1Cl)CC(c1ccccc1)c1ccccc1 | 6730 nM | 24 µM |  |
| OC(c1cc2cc(Cl)ccc2c2cc(C(F)(F)F)ccc12)C1CCCCN1 (stereo not drawn) | 1660 nM | 3.2 µM |  |
| Nc1nc(Cl)nc2c1ncn2C1CC(O)C(CO)O1 (stereo not drawn) | 56600 nM | > 100 µM |  |
| COc1cc(/C=C2\CCCCC3=C2N=C2SC(C)=CN2C3c2cc(OC)c(OC)c(OC)c2)cc(OC)c1OC (stereo not drawn) | 185 nM | > 100 µM |  |
| NC(=O)c1cc(I)ccc1NC(=O)/C=C/c1ccccc1 | 732 nM | 47.1 µM |  |
| CCN(CCNS(C)(=O)=O)c1ccc(N)c(C)c1 | 2110 nM | 5.64 µM |  |
| NC(N)=Nc1nc2ccccc2o1 | > 100000 nM | > 100 µM |  |
